Calls of active or inactive are those of the source. The rule behind the calls is not given here.
Tested on: rodent carcinogenicity bioassays, tumor incidence
Assay: CCRIS carcinogenicity studies
In short: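 NCI-built, expert-reviewed records of carcinogenicity and related test outcomes (mutagenicity, tumor promotion/inhibition) compiled from published and report sources, historical span 1985-2011, not updated.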

CSC1=N[C@@](C)(c2ccccc2)C(=O)N1Nc1ccccc1
carcinogen call (Species: Mouse, Strain/Sex: C57BL/10JfCD-1 Alpk/Female (55/Group), Route: Oral, Dose: 0, 70, 350, 3500, 7000 ppm (0; 12.6; 63.8; 690.5; 1393.2 mg/kg/d) for 80 wks, study duration 80 wks, Dose: 0, 70, 350, 3500, 7000 ppm (0; 12.6; 63.8; 690.5; 1393.2 mg/kg/d) for 80 wks, study duration 80 wks): inactive; negative | carcinogen call (Species: Mouse, Strain/Sex: C57BL/10JfCD-1 Alpk/Male (55/Group), Route: Oral, Dose: 0, 70, 350, 3500, 7000 ppm (0; 9.5; 47.5; 525.5; 1100.2 mg/kg/d) for 80 wks, study duration 80 wks, Dose: 0, 70, 350, 3500, 7000 ppm (0; 9.5; 47.5; 525.5; 1100.2 mg/kg/d) for 80 wks, study duration 80 wks): inactive; negative | carcinogen call (Species: Rat, Strain/Sex: Sprague-Dawley/Female (70/Group), Route: Oral, Dose: 0, 60, 150, 1000 ppm (0; 3.63; 9.24; 60.93 mg/kg/day) in diet for 104 wks, study duration 104 wks, Dose: 0, 60, 150, 1000 ppm (0; 3.63; 9.24; 60.93 mg/kg/day) in diet for 104 wks, study duration 104 wks): inactive; negative | carcinogen call (Species: Rat, Strain/Sex: Sprague-Dawley/Female (70/Group), Route: Oral, Dose: 0, 5000 ppm in diet for 104 wks, study duration 104 wks, Dose: 0, 5000 ppm in diet for 104 wks, study duration 104 wks): inactive; negative | carcinogen call (Species: Rat, Strain/Sex: Sprague-Dawley/Male (70/Group), Route: Oral, Dose: 0, 60, 150, 1000 ppm (0; 2.83; 7.07; 47.68 mg/kg/day) in diet for 104 wks, study duration 104 wks, Dose: 0, 60, 150, 1000 ppm (0; 2.83; 7.07; 47.68 mg/kg/day) in diet for 104 wks, study duration 104 wks): inactive; negative | carcinogen call (Species: Rat, Strain/Sex: Sprague-Dawley/Male (70/Group), Route: Oral, Dose: 0, 5000 ppm in diet for 104 wks, study duration 104 wks, Dose: 0, 5000 ppm in diet for 104 wks, study duration 104 wks): inactive; negative

CN1CCCC1=O
carcinogen call (Species: MOUSE, Strain/Sex: B6C3F1/FEMALE, Route: ORAL, Dose: 0, 600, 1200, 7200 PPM IN DIET FOR 18 MO (STUDY DURATION: 18 MO), Dose: 0, 600, 1200, 7200 PPM IN DIET FOR 18 MO (STUDY DURATION: 18 MO), Tumor Site: Type of Lesion: LIVER: HEPATOCELLULAR ADENOMA, HEPATOCELLULAR CARCINOMA): active; positive | carcinogen call (Species: MOUSE, Strain/Sex: B6C3F1/MALE, Route: ORAL, Dose: 0, 600, 1200, 7200 PPM IN DIET FOR 18 MO (STUDY DURATION: 18 MO), Dose: 0, 600, 1200, 7200 PPM IN DIET FOR 18 MO (STUDY DURATION: 18 MO), Tumor Site: Type of Lesion: LIVER: HEPATOCELLULAR ADENOMA, HEPATOCELLULAR CARCINOMA): active; positive | carcinogen call (Species: RAT, Strain/Sex: CD-1/FEMALE, Route: INHALATION, Dose: 0, 0.04, 0.4 MG/L 6 HR/D 5D/WK FOR 2 YR (STUDY DURATION: 2 YR), Dose: 0, 0.04, 0.4 MG/L 6 HR/D 5D/WK FOR 2 YR (STUDY DURATION: 2 YR)): inactive; negative | carcinogen call (Species: RAT, Strain/Sex: CD-1/FEMALE, Route: ORAL, Dose: 0, 1600, 5000, 15000 PPM IN DIET FOR 2 YR (STUDY DURATION: 2 YR), Dose: 0, 1600, 5000, 15000 PPM IN DIET FOR 2 YR (STUDY DURATION: 2 YR)): inactive; negative | carcinogen call (Species: RAT, Strain/Sex: CD-1/MALE, Route: INHALATION, Dose: 0, 0.04, 0.4 MG/L 6 HR/D 5D/WK FOR 2 YR (STUDY DURATION: 2 YR), Dose: 0, 0.04, 0.4 MG/L 6 HR/D 5D/WK FOR 2 YR (STUDY DURATION: 2 YR)): inactive; negative | carcinogen call (Species: RAT, Strain/Sex: CD-1/MALE, Route: ORAL, Dose: 0, 1600, 5000, 15000 PPM IN DIET FOR 2 YR (STUDY DURATION: 2 YR), Dose: 0, 1600, 5000, 15000 PPM IN DIET FOR 2 YR (STUDY DURATION: 2 YR)): inactive; negative

OCc1c2ccccc2cc2c1ccc1ccccc12
carcinogen call (Species: RAT, Strain/Sex: SPRAGUE-DAWLEY/FEMALE, Route: SUBCUTANEOUS, Dose: 0, 0.2 UMOL IN SESAME OIL:DMSO (9:1) 3/WK FOR 20 DOSES (STUDY DURATION: 52 WK), Tumor Site: Type of Lesion: INJECTION SITE: SARCOMA): active; positive

COc1nc(C)nc(NC(=O)NS(=O)(=O)c2ccccc2Cl)n1
carcinogen call (Species: Rat, Strain/Sex: CD/Female (50/group), Route: Oral, Dose: 0, 100, 500, 2,500 ppm in diet for 2 yr, Dose: 0, 100, 500, 2,500 ppm in diet for 2 yr): inactive; negative (study details not given in source; purity 92-95%) | carcinogen call (Species: Rat, Strain/Sex: CD/Male (50/group), Route: Oral, Dose: 0, 100, 500, 2,500 ppm in diet for 2 yr, Dose: 0, 100, 500, 2,500 ppm in diet for 2 yr): inactive; negative (study details not given in source; purity 92-95%)

CCN(CC)C(=O)c1cccc(C)c1
carcinogen call (Species: DOG, Strain/Sex: BEAGLE/FEMALE, Route: ORAL, Dose: 0, 30, 100, 400 MG/KG/D IN DIET FOR 52 WK (STUDY DURATION: 52 WK), Dose: 0, 30, 100, 400 MG/KG/D IN DIET FOR 52 WK (STUDY DURATION: 52 WK)): inactive; negative | carcinogen call (Species: DOG, Strain/Sex: BEAGLE/MALE, Route: ORAL, Dose: 0, 30, 100, 400 MG/KG/D IN DIET FOR 52 WK (STUDY DURATION: 52 WK), Dose: 0, 30, 100, 400 MG/KG/D IN DIET FOR 52 WK (STUDY DURATION: 52 WK)): inactive; negative | carcinogen call (Species: MOUSE, Strain/Sex: CD-1/MALE, Route: ORAL, Dose: 0, 250, 500, 1000 MG/KG/D IN DIET FOR 78 WK (STUDY DURATION: 78 WK), Dose: 0, 250, 500, 1000 MG/KG/D IN DIET FOR 78 WK (STUDY DURATION: 78 WK)): inactive; negative | carcinogen call (Species: Mouse, Strain/Sex: CD-1/Female (60/Group), Route: Oral, Dose: 0, 250, 500, 1000 mg/kg in diet for 78 wk, Dose: 0, 250, 500, 1000 mg/kg in diet for 78 wk): inactive; negative | carcinogen call (Species: Mouse, Strain/Sex: CD-1/Male (60/Group), Route: Oral, Dose: 0, 250, 500, 1000 mg/kg in diet for 78 wk, Dose: 0, 250, 500, 1000 mg/kg in diet for 78 wk): inactive; negative | carcinogen call (Species: RAT, Strain/Sex: CD-1/FEMALE, Route: ORAL, Dose: 0, 250, 500, 1000 MG/KG/D IN DIET FOR 78 WK (STUDY DURATION: 78 WK), Dose: 0, 250, 500, 1000 MG/KG/D IN DIET FOR 78 WK (STUDY DURATION: 78 WK)): inactive; negative | carcinogen call (Species: RAT, Strain/Sex: CD/FEMALE, Route: ORAL, Dose: 0, 30, 100, 400 MG/KG/D IN DIET FOR 104 WK (STUDY DURATION: 104 WK), Dose: 0, 30, 100, 400 MG/KG/D IN DIET FOR 104 WK (STUDY DURATION: 104 WK)): inactive; negative | carcinogen call (Species: RAT, Strain/Sex: CD/MALE, Route: ORAL, Dose: 0, 10, 30, 100 MG/KG/D IN DIET FOR 104 WK (STUDY DURATION: 104 WK), Dose: 0, 10, 30, 100 MG/KG/D IN DIET FOR 104 WK (STUDY DURATION: 104 WK)): inactive; negative | carcinogen call (Species: Rat, Strain/Sex: Charles River CD/Female (60/Group), Route: Oral, Dose: 0, 10, 30, 100 mg/kg in diet for 2 yr, Dose: 0, 10, 30, 100 mg/kg in diet for 2 yr): inactive; negative | carcinogen call (Species: Rat, Strain/Sex: Charles River CD/Male (60/Group), Route: Oral, Dose: 0, 10, 30, 100 mg/kg in diet for 2 yr, Dose: 0, 10, 30, 100 mg/kg in diet for 2 yr): inactive; negative

O=[N+]([O-])c1cccc2ccccc12
carcinogen call (Species: MOUSE, Strain/Sex: B6C3F1/FEMALE, Route: ORAL, Dose: 0, 0.06, 0.12% OF DIET, Dose: 0, 0.06, 0.12% OF DIET): inactive; negative | carcinogen call (Species: MOUSE, Strain/Sex: B6C3F1/MALE, Route: ORAL, Dose: 0, 0.06, 0.12% OF DIET, Dose: 0, 0.06, 0.12% OF DIET): inactive; negative | carcinogen call (Species: RAT, Strain/Sex: F344/FEMALE, Route: ORAL, Dose: 0, 0.06, 0.18% OF DIET, Dose: 0, 0.06, 0.18% OF DIET): inactive; negative | carcinogen call (Species: RAT, Strain/Sex: F344/MALE, Route: ORAL, Dose: 0, 0.06, 0.18% OF DIET, Dose: 0, 0.06, 0.18% OF DIET): inactive; negative

OC1c2cc3ccc4ccccc4c3nc2C2OC2C1O (configuration not stated)
carcinogen call (Species: MOUSE, Strain/Sex: SWISS/FEMALE, Route: INTRAPERITONEAL, Dose: 0, 1.05 UMOL GIVEN AS 150 NMOL IN 5 µL DMSO WITHIN 24 HR OF BIRTH, 300 NMOL IN 10 µL DMSO ON D 8 OF LIFE, AND 600 NMOL I): inactive; negative | carcinogen call (Species: MOUSE, Strain/Sex: SWISS/MALE, Route: INTRAPERITONEAL, Dose: 0, 1.05 UMOL GIVEN AS 150 NMOL IN 5 µL DMSO WITHIN 24 HR OF BIRTH, 300 NMOL IN 10 µL DMSO ON D 8 OF LIFE, AND 600 NMOL I): inactive; negative

CS(=O)(=O)OCCCCOS(C)(=O)=O
carcinogen call (Species: MOUSE, Route: INTRAVENOUS, Tumor Site: Type of Lesion: OVARIES, THYMUS GLAND): active; positive

— PubChem BioAssay AID1259411 (Chemical Carcinogenesis Research Information System (CCRIS), 2018)
